# Tests used:
# [1] = n-Octanol-water partition coefficient, log P of the compound; format: physicochemical
# S91 = assay: Photodynamic efficacy against mouse Cloudman S91 cells allografted in DBA mouse assessed as time of tumor growth delay at 2 mg/kg, iv followed by irradiated with 70 mW cm'-2 diode laser light for 25 mins; format: functional
smiles,measurement,setting,value
O=S(=O)(O)c1ccc(Cl)c(-c2c3nc(c(-c4cc(S(=O)(=O)O)ccc4Cl)c4ccc([nH]4)c(-c4cc(S(=O)(=O)O)ccc4Cl)c4nc(c(-c5cc(S(=O)(=O)O)ccc5Cl)c5ccc2[nH]5)CC4)CC3)c1,logP,[1],-1.7
same,Time,S91,27 days
